Measurements as given in ChEMBL document CHEMBL5463725, “Data for DCP probe BAY-277” (2023).

How the values were obtained:
[1] = biological target: T1, 5-hydroxytryptamine receptor 1A (Homo sapiens) (UniProt P08908); assay: Inhibition of Serotonin (5-Hydroxytryptamine) 5-HT1A at 10.0 µM in the Eurofins Panlabs Safety Screen; details: Compound concentration 10.0 uM
T1 sequence (whole entry): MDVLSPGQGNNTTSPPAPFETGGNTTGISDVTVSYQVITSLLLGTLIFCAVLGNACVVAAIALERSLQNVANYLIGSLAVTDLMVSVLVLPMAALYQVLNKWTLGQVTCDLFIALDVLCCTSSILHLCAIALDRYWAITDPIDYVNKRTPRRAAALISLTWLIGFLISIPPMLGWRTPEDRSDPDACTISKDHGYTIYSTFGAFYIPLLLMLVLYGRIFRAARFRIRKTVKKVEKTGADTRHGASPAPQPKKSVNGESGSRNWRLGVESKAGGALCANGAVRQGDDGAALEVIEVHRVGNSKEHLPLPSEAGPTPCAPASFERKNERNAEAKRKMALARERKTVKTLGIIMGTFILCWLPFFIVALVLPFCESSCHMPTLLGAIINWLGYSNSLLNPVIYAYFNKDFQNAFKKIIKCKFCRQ

[2] = biological target: Sigma intracellular receptor 2 (Homo sapiens, UniProt Q5BJF2); assay: GPCRScan assay: inhibition of Sigma 2; set-up: radioligand conc. used [nm] 5.0, parental cells HEKT
Chain of Sigma intracellular receptor 2 (Q5BJF2 whole entry): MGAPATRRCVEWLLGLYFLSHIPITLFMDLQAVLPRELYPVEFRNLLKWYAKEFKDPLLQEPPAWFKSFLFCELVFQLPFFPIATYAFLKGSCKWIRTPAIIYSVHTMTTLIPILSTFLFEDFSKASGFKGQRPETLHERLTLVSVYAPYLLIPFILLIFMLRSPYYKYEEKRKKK

[3] = biological target: Dual specificity protein kinase CLK1 (Homo sapiens) (UniProt P49759); assay: Inhibition of CLK1(h) at 10.0 µM in the Eurofins Kinase panel; details: Compound concentration 10.0 uM
Chain of Dual specificity protein kinase CLK1 (Homo sapiens) (P49759 whole entry, looked up): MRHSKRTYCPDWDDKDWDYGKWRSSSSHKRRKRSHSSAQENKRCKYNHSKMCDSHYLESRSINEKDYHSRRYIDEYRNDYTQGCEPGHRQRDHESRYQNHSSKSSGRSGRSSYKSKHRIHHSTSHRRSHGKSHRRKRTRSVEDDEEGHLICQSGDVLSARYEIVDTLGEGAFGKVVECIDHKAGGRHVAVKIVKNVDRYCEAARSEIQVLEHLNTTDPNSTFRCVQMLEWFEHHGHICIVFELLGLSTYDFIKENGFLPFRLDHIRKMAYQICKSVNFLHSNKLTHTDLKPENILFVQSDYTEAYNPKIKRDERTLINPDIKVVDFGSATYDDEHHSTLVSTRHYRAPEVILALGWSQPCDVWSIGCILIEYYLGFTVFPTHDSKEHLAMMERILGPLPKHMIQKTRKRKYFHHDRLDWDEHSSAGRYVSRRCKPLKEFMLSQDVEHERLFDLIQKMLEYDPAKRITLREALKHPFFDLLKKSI

[4] = biological target: B1 bradykinin receptor (Homo sapiens) (UniProt P46663); assay: Inhibition of Bradykinin B1 at 10.0 µM in the Eurofins Panlabs Safety Screen; details: Compound concentration 10.0 uM
[5] = biological target: Tyrosine-protein kinase HCK (Homo sapiens) (UniProt P08631); assay: Inhibition of Hck(h) at 10.0 µM in the Eurofins Kinase panel; details: Compound concentration 10.0 uM
Chain of Tyrosine-protein kinase HCK (Homo sapiens) (P08631 2-526 limits assumed): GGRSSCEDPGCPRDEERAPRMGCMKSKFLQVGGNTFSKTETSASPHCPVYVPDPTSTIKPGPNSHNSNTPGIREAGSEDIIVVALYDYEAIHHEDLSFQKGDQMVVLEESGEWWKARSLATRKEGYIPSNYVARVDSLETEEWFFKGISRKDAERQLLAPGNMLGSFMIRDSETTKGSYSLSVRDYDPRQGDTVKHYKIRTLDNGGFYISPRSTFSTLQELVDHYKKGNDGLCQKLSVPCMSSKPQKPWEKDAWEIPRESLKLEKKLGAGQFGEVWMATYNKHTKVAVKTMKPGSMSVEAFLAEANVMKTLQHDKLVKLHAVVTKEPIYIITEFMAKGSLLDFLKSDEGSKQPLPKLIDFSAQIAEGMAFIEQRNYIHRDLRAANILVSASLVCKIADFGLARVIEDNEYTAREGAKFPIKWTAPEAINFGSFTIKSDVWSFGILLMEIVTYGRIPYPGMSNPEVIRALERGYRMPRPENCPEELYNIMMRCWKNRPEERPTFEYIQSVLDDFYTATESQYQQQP

[6] = biological target: Histamine H1 receptor (Homo sapiens) (UniProt P35367); assay: Inhibition of Histamine H1 at 10.0 µM in the Eurofins Panlabs Safety Screen; details: Compound concentration 10.0 uM
[7] = biological target: D(4) dopamine receptor (Homo sapiens) (UniProt P21917); details: Compound concentration 10.0 uM
Chain of D(4) dopamine receptor (Homo sapiens) (P21917 whole entry): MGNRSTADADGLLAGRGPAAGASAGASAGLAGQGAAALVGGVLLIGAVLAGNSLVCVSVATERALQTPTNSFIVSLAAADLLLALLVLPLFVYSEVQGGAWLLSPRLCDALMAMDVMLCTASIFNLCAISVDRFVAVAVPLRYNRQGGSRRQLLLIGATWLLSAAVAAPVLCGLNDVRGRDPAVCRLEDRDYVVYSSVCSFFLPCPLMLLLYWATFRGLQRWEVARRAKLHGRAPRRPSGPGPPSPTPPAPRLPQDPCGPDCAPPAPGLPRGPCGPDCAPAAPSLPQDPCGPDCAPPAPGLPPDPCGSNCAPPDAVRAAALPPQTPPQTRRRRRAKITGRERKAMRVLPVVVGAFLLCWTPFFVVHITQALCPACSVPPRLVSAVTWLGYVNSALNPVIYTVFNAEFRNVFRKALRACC

[8] = biological target: T2, Alpha-2A adrenergic receptor (Homo sapiens) (UniProt P08913); details: Compound concentration 10.0 uM
T2 sequence (whole entry): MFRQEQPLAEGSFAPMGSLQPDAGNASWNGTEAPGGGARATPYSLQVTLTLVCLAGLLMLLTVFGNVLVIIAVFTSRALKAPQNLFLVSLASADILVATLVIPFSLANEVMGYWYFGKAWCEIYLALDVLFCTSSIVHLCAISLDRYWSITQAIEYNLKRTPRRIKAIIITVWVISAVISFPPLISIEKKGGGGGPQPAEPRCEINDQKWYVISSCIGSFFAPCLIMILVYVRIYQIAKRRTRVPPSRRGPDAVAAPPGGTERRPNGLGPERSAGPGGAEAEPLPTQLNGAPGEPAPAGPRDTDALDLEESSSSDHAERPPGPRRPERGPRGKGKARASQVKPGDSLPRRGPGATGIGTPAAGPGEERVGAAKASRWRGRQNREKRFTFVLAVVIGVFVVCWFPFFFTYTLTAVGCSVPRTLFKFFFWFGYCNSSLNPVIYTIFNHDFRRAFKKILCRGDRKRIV

[9] = biological target: Adenosine receptor A2a (Homo sapiens) (UniProt P29274); assay: Inhibition of Adenosine A2A at 10.0 µM in the Eurofins Panlabs Safety Screen; details: Compound concentration 10.0 uM
Chain of Adenosine receptor A2a (Homo sapiens) (P29274 whole entry): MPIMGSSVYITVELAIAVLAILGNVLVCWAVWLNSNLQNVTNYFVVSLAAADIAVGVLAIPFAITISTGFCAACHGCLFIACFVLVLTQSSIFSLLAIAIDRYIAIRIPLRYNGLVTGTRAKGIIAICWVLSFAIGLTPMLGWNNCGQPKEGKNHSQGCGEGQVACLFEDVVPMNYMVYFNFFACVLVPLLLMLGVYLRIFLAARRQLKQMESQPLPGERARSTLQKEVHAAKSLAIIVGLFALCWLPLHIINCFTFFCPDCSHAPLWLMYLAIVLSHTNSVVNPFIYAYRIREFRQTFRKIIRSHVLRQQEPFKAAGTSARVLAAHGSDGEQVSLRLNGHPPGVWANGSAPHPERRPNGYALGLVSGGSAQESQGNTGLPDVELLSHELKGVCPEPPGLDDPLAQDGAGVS

[10] = biological target: Endothelin receptor type B (Homo sapiens) (UniProt P24530); assay: Inhibition of Endothelin ETB at 10.0 µM in the Eurofins Panlabs Safety Screen; details: Compound concentration 10.0 uM
Chain of Endothelin receptor type B (Homo sapiens) (P24530 whole entry): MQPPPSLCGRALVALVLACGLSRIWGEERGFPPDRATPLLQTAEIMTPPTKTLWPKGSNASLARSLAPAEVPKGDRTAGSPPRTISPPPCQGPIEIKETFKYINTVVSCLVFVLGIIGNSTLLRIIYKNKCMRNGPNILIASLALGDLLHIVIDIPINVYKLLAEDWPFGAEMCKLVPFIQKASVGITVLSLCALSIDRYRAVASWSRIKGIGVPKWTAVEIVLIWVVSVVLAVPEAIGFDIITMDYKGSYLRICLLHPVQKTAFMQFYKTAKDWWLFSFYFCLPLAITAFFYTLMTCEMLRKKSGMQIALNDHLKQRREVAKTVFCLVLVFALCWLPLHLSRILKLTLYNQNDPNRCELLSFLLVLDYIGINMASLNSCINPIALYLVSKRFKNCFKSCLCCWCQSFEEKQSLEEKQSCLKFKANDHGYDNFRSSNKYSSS

[11] = biological target: D(2) dopamine receptor (Homo sapiens) (UniProt P14416); assay: Inhibition of Dopamine D2L at 10.0 µM in the Eurofins Panlabs Safety Screen; details: Compound concentration 10.0 uM
[12] = biological target: Muscarinic acetylcholine receptor M3 (Homo sapiens, UniProt P20309); assay: Inhibition of Muscarinic M3 at 10.0 µM in the Eurofins Panlabs Safety Screen; details: Compound concentration 10.0 uM
[13] = biological target: Delta-type opioid receptor (Homo sapiens) (UniProt P41143); details: Compound concentration 10.0 uM
Chain of Delta-type opioid receptor (Homo sapiens) (P41143 whole entry): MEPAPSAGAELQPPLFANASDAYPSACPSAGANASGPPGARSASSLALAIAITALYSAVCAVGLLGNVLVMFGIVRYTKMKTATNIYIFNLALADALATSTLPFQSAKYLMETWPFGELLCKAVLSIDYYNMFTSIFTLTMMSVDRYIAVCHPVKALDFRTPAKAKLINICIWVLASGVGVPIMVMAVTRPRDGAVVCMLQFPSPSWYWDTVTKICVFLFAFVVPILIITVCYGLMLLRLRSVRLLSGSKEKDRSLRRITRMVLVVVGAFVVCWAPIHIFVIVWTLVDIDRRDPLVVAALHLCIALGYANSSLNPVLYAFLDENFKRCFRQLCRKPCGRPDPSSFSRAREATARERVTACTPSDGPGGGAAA

[14] = biological target: T3, Alpha-2B adrenergic receptor (Homo sapiens) (UniProt P18089); assay: Inhibition of Adrenergic alpha2B at 10.0 µM in the Eurofins Panlabs Safety Screen; details: Compound concentration 10.0 uM
T3 sequence (whole entry): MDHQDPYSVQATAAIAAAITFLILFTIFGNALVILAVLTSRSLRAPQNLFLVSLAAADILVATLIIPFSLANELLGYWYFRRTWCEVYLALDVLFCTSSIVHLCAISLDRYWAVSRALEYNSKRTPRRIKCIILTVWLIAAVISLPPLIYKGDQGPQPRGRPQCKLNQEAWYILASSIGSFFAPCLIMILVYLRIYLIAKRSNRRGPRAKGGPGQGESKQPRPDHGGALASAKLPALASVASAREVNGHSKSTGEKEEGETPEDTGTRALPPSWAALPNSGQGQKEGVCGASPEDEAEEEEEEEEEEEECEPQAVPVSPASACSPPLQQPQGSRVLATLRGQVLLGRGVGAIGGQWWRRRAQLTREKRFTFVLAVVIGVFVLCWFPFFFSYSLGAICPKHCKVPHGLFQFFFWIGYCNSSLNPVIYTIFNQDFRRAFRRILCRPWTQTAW

[15] = biological target: Beta-3 adrenergic receptor (Homo sapiens) (UniProt P13945); assay: Inhibition of Adrenergic beta3 at 10.0 µM in the Eurofins Panlabs Safety Screen; details: Compound concentration 10.0 uM
[16] = biological target: Monoamine oxidase A (MAO-A) (Homo sapiens, UniProt P21397); assay: Inhibition of Monoamine Oxidase MAO-A at 10.0 µM in the Eurofins Panlabs Safety Screen; details: compound concentration 10 uM
Chain of Monoamine oxidase A (MAO-A) (P21397 whole entry): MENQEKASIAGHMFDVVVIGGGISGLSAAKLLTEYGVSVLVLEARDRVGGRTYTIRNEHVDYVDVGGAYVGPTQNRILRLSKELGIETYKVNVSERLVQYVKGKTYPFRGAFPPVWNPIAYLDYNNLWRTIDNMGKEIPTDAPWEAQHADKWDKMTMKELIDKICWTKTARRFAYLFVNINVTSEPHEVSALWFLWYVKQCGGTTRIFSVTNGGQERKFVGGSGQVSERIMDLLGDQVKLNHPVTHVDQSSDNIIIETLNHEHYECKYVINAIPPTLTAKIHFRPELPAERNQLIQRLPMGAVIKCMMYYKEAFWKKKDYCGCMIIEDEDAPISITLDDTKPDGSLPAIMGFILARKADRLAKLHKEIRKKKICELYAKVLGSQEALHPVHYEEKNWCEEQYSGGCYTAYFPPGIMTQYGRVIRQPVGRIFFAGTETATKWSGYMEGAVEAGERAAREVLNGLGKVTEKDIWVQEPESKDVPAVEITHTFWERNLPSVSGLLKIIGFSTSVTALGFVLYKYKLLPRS

[17] = biological target: Leukotriene C4 synthase (Cavia porcellus) (UniProt A6XA80); assay: Inhibition of Leukotriene LTC4 Synthase at 10.0 µM in the Eurofins Panlabs Safety Screen; details: Compound concentration 10.0 uM
Chain of Leukotriene C4 synthase (Cavia porcellus) (A6XA80 whole entry): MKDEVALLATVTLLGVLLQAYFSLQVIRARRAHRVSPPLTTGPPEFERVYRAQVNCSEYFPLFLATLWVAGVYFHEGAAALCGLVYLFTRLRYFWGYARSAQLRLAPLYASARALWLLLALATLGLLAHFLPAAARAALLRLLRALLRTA

[18] = biological target: 5-hydroxytryptamine receptor 1B (Homo sapiens) (UniProt P28222); details: Compound concentration 10.0 uM
Chain of 5-hydroxytryptamine receptor 1B (Homo sapiens) (P28222 whole entry): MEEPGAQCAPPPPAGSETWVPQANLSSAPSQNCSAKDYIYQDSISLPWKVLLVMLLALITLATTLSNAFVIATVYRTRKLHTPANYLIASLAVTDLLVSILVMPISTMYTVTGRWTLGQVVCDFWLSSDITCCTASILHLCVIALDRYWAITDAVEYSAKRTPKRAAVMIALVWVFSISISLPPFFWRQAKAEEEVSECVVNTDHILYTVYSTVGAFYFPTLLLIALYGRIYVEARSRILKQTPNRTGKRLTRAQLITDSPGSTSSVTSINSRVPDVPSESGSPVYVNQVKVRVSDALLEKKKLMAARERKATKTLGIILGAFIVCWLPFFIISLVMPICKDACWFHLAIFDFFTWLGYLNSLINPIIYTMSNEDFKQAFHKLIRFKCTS

[19] = biological target: TGF-beta receptor type-2 (Homo sapiens) (UniProt P37173); assay: Inhibition of TGFBR2(h) at 10.0 µM in the Eurofins Kinase panel; details: Compound concentration 10.0 uM
[20] = biological target: Histamine H3 receptor (Homo sapiens, UniProt Q9Y5N1); assay: GPCRScan assay: inhibition of H3; set-up: radioligand conc. used [nm] 0.5 – 1.0, parental cells HEK Flp-In
Chain of Histamine H3 receptor (Q9Y5N1 whole entry): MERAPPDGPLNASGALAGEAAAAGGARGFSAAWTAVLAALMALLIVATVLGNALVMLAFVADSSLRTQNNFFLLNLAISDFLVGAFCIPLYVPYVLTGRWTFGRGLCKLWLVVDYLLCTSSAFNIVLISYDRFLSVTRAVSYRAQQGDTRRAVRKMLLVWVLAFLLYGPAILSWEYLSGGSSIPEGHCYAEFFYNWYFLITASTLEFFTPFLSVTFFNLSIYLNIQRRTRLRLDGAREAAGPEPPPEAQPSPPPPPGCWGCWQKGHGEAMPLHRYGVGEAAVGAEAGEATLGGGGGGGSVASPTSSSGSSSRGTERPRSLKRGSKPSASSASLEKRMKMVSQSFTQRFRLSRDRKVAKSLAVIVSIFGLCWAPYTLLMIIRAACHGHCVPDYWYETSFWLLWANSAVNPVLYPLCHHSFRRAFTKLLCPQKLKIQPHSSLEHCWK

[21] = biological target: Thromboxane-A synthase (Homo sapiens) (UniProt P24557); assay: Inhibition of Thromboxane Synthase at 10.0 µM in the Eurofins Panlabs Safety Screen; details: Compound concentration 10.0 uM
Chain of Thromboxane-A synthase (Homo sapiens) (P24557 whole entry): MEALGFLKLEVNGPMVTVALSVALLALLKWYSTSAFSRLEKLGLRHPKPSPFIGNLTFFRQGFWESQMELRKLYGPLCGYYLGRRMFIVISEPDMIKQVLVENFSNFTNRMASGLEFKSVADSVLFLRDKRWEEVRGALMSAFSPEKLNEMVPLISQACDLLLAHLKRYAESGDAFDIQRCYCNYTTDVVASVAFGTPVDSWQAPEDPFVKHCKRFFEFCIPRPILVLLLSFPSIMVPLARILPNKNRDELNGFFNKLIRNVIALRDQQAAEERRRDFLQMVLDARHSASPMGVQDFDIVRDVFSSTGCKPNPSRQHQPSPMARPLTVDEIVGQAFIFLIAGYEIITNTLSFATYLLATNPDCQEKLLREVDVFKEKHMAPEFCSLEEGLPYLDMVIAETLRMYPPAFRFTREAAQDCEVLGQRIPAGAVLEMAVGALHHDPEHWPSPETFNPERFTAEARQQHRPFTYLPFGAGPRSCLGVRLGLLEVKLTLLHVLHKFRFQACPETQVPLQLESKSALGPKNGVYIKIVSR

Row | SMILES | inhibition [1] [%] | Ki ([2]; read-out: Ki) [nM] | Ki ([2]; read-out: pKi (converted)) [nM] | inhibition [3] [%] | inhibition [4] [%] | inhibition [5] [%] | inhibition [6] [%] | inhibition [7] [%] | inhibition [8] [%] | inhibition [9] [%] | inhibition [10] [%] | inhibition [11] [%] | inhibition [12] [%] | inhibition [13] [%] | inhibition [14] [%] | inhibition [15] [%] | inhibition at 10 µM [16] [%] | inhibition [17] [%] | inhibition [18] [%] | inhibition [19] [%] | also measured
1 | O=C1CCC(N2Cc3cc(C4CCN(C(=O)CCCCCN5CCC(c6ccc(Oc7nn8cnnc8c8c7CCCC8)cc6)CC5)CC4)ccc3C2=O)C(=O)N1 (stereo unspecified) | 25 | 867 | 832 | 13.9 | 1 | 12.8 | 23 | 14.3 | 33.1 | 6 | 2 | 22 | 26 | 17.5 | 19 | 16 | 16 | 2 | 21.9 | 12.7 | Ki ([20]; read-out: Ki): 72.8 nM; Ki ([20]; read-out: pKi (converted)): 70.8 nM; inhibition [21]: 10%
2 | O=C1NCCCC1N1Cc2cc(C3CCN(C(=O)CCCCCN4CCC(c5ccc(Oc6nn7cnnc7c7c6CCCC7)cc5)CC4)CC3)ccc2C1=O (stereo unspecified) | 6 | 1140 | 977 | 16.7 | 7 | 17.9 | 22 | 19.1 | 29.3 | 6 | -5 | 22 | 29 | 19.5 | 8 | 13 | 18 | 15 | 14.2 | 11.3 | Ki ([20]; read-out: Ki): 73.2 nM; Ki ([20]; read-out: pKi (converted)): 72.4 nM; inhibition [21]: 23%
